Results taken from US12661415B2, “Isoindolinone compounds and imaging agents for imaging Huntingtin protein” (CHDI Foundation, Inc., priority 2021, dated 2026).

Tests used:
[1] = Unbound brain fraction (fu,brain) in mouse brain by equilibrium dialysis; assay type: in vitro ADME; settings: 20% mouse brain homogenate, 5 μM, equilibrium dialysis 6 h at 37° C., average of triplicate
Protocol: Compounds were tested for unbounded brain fraction (or free fraction in brain, fu,brain). It is an accepted standard in the CNS PET imaging field that compounds with low unbound fraction in brain (<5%) likely have high non-specific binding background that is undesirable for the detection of target binding. As a result, fu,brain is an important property in the design of PET ligands for brain imaging [see Zhang et al., Design and selection parameters to accelerate the discovery of novel central nervous system positron emission tomography (PET) ligands and their application in the development of a novel phosphodiesterase 2A PET ligand. J Med Chem 2013, 56 (11), 4568-79; Liu et al., Imaging Mutant Huntingtin Aggregates: Development of a Potential PET Ligand. J Med Chem 2020, 63 (15), 8608-8633].
Determining fu,brain in Mouse Brain by Equilibrium Dialysis. Dialysis membranes (12-14 kDa) (HTDialysis, Connecticut) were soaked in phosphate buffer (10 mM potassium phosphate and 0.8% sodium chloride buffer, pH 7.4 at 37° C.) for a minimum of 1 h, at this time ethanol was added (final concentration of 20% v/v) and membranes continued to soak for 30 min Mouse brain tissue was diluted in phosphate buffer in a […] (w/v) and homogenised using a Precellys 24 (Stretton Scientific, UK) to achieve a final concentration of 20% brain homogenate.
Test compounds prepared as DMSO stocks at 0.5 mM are diluted into brain homogenate to achieve 5 μM final substrate concentration (1% DMSO) and a t=0 sample was prepared by sampling 50 μL of into 400 μL of quench solution (Acetonitrile containing 0.1% formic acid and sulfisoxazole/tolbutamide/imipramine/labetalol 200 nM). Samples were matrix matched with the addition of 50 μL of assay buffer. The HTDialysis Teflon blocks (HTDialysis, Connecticut) were assembled with pre-soaked membrane between each receiver and donor well and clamped in the stainless steel pressure plate (HTDialysis, Connecticut). The lower compartment (acceptor side) was dosed with 120 μL of buffer and the upper compartment (donor side) was dosed with 120 μL of compound in homogenate. All test compounds and controls were completed in triplicate. The HT dialysis plate was sealed and incubated for 6 h at 37° C. shaking at 250 rpm.
Following the incubation, 50 μL of sample was removed from all donor and acceptor wells and transferred into a quench plate containing 400 μL of quench solution. All samples were matrix matched with 50 μL of the alternate blank matrix. Analytical samples were diluted 1:1 with water using the Janus Robot and analysed by LC-MS/MS.
Peak areas of donor and acceptor compartments were compared to determine percent unbound (% fu) and the average of triplicate measurements was reported. Reference T0 sample was used to calculate sample recovery (%). Control compounds were compared with historic and literature values to ensure assay functionality.

[2] = biological target: T1, MBP-HTT(1-89)Q46-His(6×) (Exon1-Q46) protein aggregates (Homo sapiens, UniProt P42858, INS38QQQQQQQQQQQQQQQQQQQQQQQQQ); assay: Exon1-Q46 radioligand binding assay (RBA); settings: aggregated Exon1-Q46 1 μM; 0.3 nM ligand [3H3-methyl]-5-((5-methoxypyridin-2-yl)methoxy)-2-(pyrazin-2-yl)benzo[d]oxazole; 60 minutes at 37° C.; read-out: Potency Range (IC50)
T1 construct: MBP-HTT(1-89)Q46-His(6×); His(6×) (C); made in house
Protocol: Exon1-Q46 Radioligand Binding Assay
For radioligand binding assays (RBA) MBP-HTT(1-89)Q46-His(6×) (“Exon1-Q46”) protein was generated based on a previous publication (Scherzinger et al. Cell, Vol. 90, 549-558, Aug. 8, 1997). For experiments 30 μM MBP-Exon1-Q46 was incubated with 150 μg/mL thrombin in assay buffer (150 mM NaCl, 50 mM Tris pH 8.0) and 2 mM CaCl2 for 16 hours at 37° C. Aggregated Exon1-Q46 was pelleted by centrifugation for 5 minutes at 13,000 rpm in a bench top centrifuge and re-dissolved in the same volume of assay buffer. Test compounds were prepared by titration in DMSO at 11 concentrations from 63 μM to 2 nM. For the RBA, Exon1-Q46 protein aggregates and test compounds were pre-incubated in assay buffer for 20 minutes at room temperature, in 100 μL/well in a 96-well plate (pp, round bottom). Then, ligand was added in 50 μL/well and incubated for 60 minutes at 37° C. Final assay concentrations were 1 μM to 30 pM test compound, 1 μM Exon1-Q46 protein (equivalent monomer concentration) and 0.3 nM ligand [^3H3-methyl]-5-((5-methoxypyridin-2-yl)methoxy)-2-(pyrazin-2-yl)benzo[d]oxazole. Samples were transferred onto GF/B filter plates and washed 2× with 200 μL PBS using a Filtermate Harvester. After drying filter plates for 1 hour at 55° C., the back of the plates were sealed with foil and 30 μL/well scintillation fluid (Packard MicroScint 40) added, incubated for 15 minutes in the dark and counted in a MicroBeta reader. For analysis, replicate data from independent assay plates were normalized towards 0% and 100% inhibition using control wells of vehicle (0% inhibition) and 1 μM unlabelled [^3H3-methyl]-5-((5-methoxypyridin-2-yl)methoxy)-2-(pyrazin-2-yl)benzo[d]oxazole (100% inhibition). IC50 values were determined with a sigmoidal inhibition model with four variables (top, bottom, slope, IC50) in a global fit using the normalized replicate data.
The results for various example compounds were as provided in the table below (+++<100 nM; ++100−500 nM; +>500 nM; ND: not determined): […]

T1 sequence (P42858 with tags, fused parts or gaps with the stated changes): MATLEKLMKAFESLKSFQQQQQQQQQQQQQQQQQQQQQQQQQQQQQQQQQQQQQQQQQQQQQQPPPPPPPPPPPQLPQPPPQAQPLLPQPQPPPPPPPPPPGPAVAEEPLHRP

Mean Free Brain Fraction (%) [1] | IC50 [2] | SMILES
11.9% | < 100 nM | COc1cnc(COc2ccc3c(c2)CN(c2ccc(=O)n(C)n2)C3=O)c(F)c1 [Compound 1-7, 5-[(3-Fluoro-5-methoxypyridin-2-yl)methoxy]-2-(1-methyl-6-oxo-1,6-dihydropyridazin-3-yl)-2,3-dihydro-1H-isoindol-1-one]
5.4% | < 100 nM | COc1ccc(COc2cc(F)c3c(c2)C(=O)N(c2ccc(=O)n(C)n2)C3)nc1 [Compound 12-3, 4-Fluoro-6-[(5-methoxypyridin-2-yl)methoxy]-2-(1-methyl-6-oxo-1,6-dihydropyridazin-3-yl)-2,3-dihydro-1H-isoindol-1-one]
9.0% | < 100 nM | COc1ccc(COc2ccc3c(c2)C(=O)N(c2ccc(=O)n(C)n2)C3)nc1 [Compound 1-12, 6-[(5-Methoxypyridin-2-yl)methoxy]-2-(1-methyl-6-oxo-1,6-dihydropyridazin-3-yl)-2,3-dihydro-1H-isoindol-1-one]
7.0% | < 100 nM | COc1ccc(COc2ccc3c(c2)CN(c2ccc(=O)n(C)n2)C3=O)nc1F [Compound 1-13, 5-[(6-Fluoro-5-methoxy-2-pyridyl)methoxy]-2-(1-methyl-6-oxo-pyridazin-3-yl)isoindolin-1-one]
6.5% | < 100 nM | COc1ccc(COc2cc3c(cc2F)CN(c2ccc(=O)[nH]n2)C3=O)nc1 [Compound 13-2, 5-Fluoro-6-[(5-methoxy-2-pyridyl)methoxy]-2-(6-oxo-1H-pyridazin-3-yl)isoindolin-1-one]
2.7% | < 100 nM | Cn1nc(N2Cc3cc(OCc4cc(Cl)c(F)cn4)ccc3C2=O)ccc1=O [Compound 2-3, 5-[(4-Chloro-5-fluoropyridin-2-yl)methoxy]-2-(1-methyl-6-oxo-1,6-dihydropyridazin-3-yl)-2,3-dihydro-1H-isoindol-1-one]
16.4% | < 100 nM | COc1ccc(COc2ccc3c(c2F)C(=O)N(c2ccc(=O)n(C)n2)C3)nc1 [Compound 12-10, 7-Fluoro-6-[(5-methoxypyridin-2-yl)methoxy]-2-(1-methyl-6-oxo-1,6-dihydropyridazin-3-yl)-2,3-dihydro-1H-isoindol-1-one]
17.1% | < 100 nM | COc1ccc(COc2cc3c(cc2F)C(=O)N(c2cn(C)c(=O)cn2)C3)nc1 [Compound 14-3, 6-Fluoro-5-((5-methoxypyridin-2-yl)methoxy)-2-(4-methyl-5-oxo-4,5-dihydropyrazin-2-yl)isoindolin-1-one]
7.1% | < 100 nM | COc1ccc(COc2cc3c(cc2F)C(=O)N(c2ccc(=O)n(C)n2)C3)nc1 [Compound 12-1, 6-Fluoro-5-[(5-methoxypyridin-2-yl)methoxy]-2-(1-methyl-6-oxo-1,6-dihydropyridazin-3-yl)-2,3-dihydro-1H-isoindol-1-one]

The next lines start with the compound.

SMILES | Mean Free Brain Fraction (%) [1] | IC50 [2]
COc1ccc(COc2ccc3c(c2)CN(c2ccc(=O)[nH]n2)C3=O)nc1 [Compound 6-1, 5-[(5-Methoxypyridin-2-yl)methoxy]-2-(6-oxo-1,6-dihydropyridazin-3-yl)-2,3-dihydro-1H-isoindol-1-one] | 11.3% | < 100 nM
Cn1nc(N2Cc3cc(OCc4ccc(F)cn4)cnc3C2=O)ccc1=O [Compound 12-7, 6-{3-[(5-Fluoropyridin-2-yl)methoxy]-7-oxo-5H,6H,7H-pyrrolo[3,4-b]pyridin-6-yl}-2-methyl-2,3-dihydropyridazin-3-one] | 67.8% | < 100 nM
COc1ccc(COc2cc(F)c3c(c2)CN(c2ccc(=O)[nH]n2)C3=O)nc1 [Compound 10-2, 7-Fluoro-5-[(5-methoxypyridin-2-yl)methoxy]-2-(6-oxo-1,6-dihydropyridazin-3-yl)-2,3-dihydro-1H-isoindol-1-one] | 9.5% | < 100 nM
[2H]C([2H])(F)C([2H])([2H])Oc1ccc(COc2ccc3c(c2)CN(c2ccc(=O)n(C)n2)C3=O)nc1 [Compound 1-8, 5-({5-[2-Fluoro(1,1,2,2-^2H4)ethoxy]pyridin-2-yl}methoxy)-2-(1-methyl-6-oxo-1,6-dihydropyridazin-3-yl)-2,3-dihydro-1H-isoindol-1-one] | 10.1% | < 100 nM
COc1ccc(COc2ccc3c(c2)CN(c2ccncc2)C3=O)nc1 [Compound 1-4, 5-[(5-Methoxypyridin-2-yl)methoxy]-2-(pyridin-4-yl)-2,3-dihydro-1H-isoindol-1-one] | 3.0% | < 100 nM
Cn1nc(N2Cc3cc(OCc4ccc(OCCF)cn4)ccc3C2=O)ccc1=O [Compound 2-1, 5-{[5-(2-Fluoroethoxy)pyridin-2-yl]methoxy}-2-(1-methyl-6-oxo-1,6-dihydro-pyridazin-3-yl)-2,3-dihydro-1H-isoindol-1-one] | 14.3% | < 100 nM
O=C1c2ccc(OCc3ccc(F)cn3)cc2CN1c1ccc(=O)[nH]n1 [Compound 9-1, 5-[(5-Fluoro-2-pyridyl)methoxy]-2-(6-oxo-1H-pyridazin-3-yl)isoindolin-1-one] | 6.7% | < 100 nM
COc1ccc(COc2ccc3c(c2)CN(c2ccc(=O)n(C)n2)C3=O)nc1 [Compound 1-6, 5-[(5-Methoxypyridin-2-yl)methoxy]-2-(1-methyl-6-oxo-1,6-dihydropyridazin-3-yl)-2,3-dihydro-1H-isoindol-1-one] | 9.8% | < 100 nM
COc1cnc(COc2cnc3c(c2)CN(c2ccc(=O)n(C)n2)C3=O)c(F)c1 [Compound 12-8, 6-{3-[(3-Fluoro-5-methoxypyridin-2-yl)methoxy]-7-oxo-5H,6H,7H-pyrrolo[3,4-b]pyridin-6-yl}-2-methyl-2,3-dihydropyridazin-3-one] | 65.0% | < 100 nM
Cn1nc(N2Cc3cc(OCc4ccc(OCF)cn4)ccc3C2=O)ccc1=O [Compound 2-2, 5-{[5-(Fluoromethoxy)pyridin-2-yl]methoxy}-2-(1-methyl-6-oxo-1,6-dihydropyridazin-3-yl)-2,3-dihydro-1H-isoindol-1-one] | 12.7% | < 100 nM
COc1ccc(COc2ccc3c(c2)CN(c2ccc(=O)n(CCF)n2)C3=O)nc1 [Compound 8-2, 2-[1-(2-Fluoroethyl)-6-oxo-1,6-dihydropyridazin-3-yl]-5-[(5-methoxypyridin-2-yl)methoxy]-2,3-dihydro-1H-isoindol-1-one] | 9.0% | < 100 nM
